Where no end group is shown, it is not given here.
Experiments:
IL-4 = experiment: Ovalbumin-induced IL-4 production by splenocytes from ovalbumin-sensitized mice (ELISA); assay type: cell-based, BALB/c mice; conditions: ovalbumin 100 μg/mL + 100 μM peptide added daily, four days; ovalbumin alone 309.3 ± 49.6
Experimental: (§1) Splenocytes from ovalbumin-sensitized mice were cultured for four days with no antigen, with ovalbumin alone, or with ovalbumin plus the STAT-6-IP or a STAT-6 Tyr-641 mutant (STAT-6-CP; Tyr-Ala-Arg-Ala-Ala-Ala-Arg-Gln-Ala-Arg-Ala-Gly-Arg-Gly-Phe-Val-Ser-Thr-Thr; SEQ ID NO:8). The STAT-6-IP and STAT-6-CP were added to splenocyte cultures daily. Treatment with the STAT-6-IP, but not the STAT-6-CP, reduced the supernatant levels of both IL-4 and IL-13 (Table 3).
(§2) BALB/c mice were sensitized systemically by two weekly i.p. injections of 0.025% ovalbumin mixed with 4 mg/mL Al(OH)3. One week after the second sensitization, mice were sacrificed and spleens harvested. A single cell suspension of splenocytes (5×10^6 cells/mL) was cultured in RPMI-1640 medium containing 10% heat-inactivated fetal bovine serum and 2 mM L-glutamine, 50 μM 2-mercaptoethanol, 100 U/mL penicillin, and 100 μg/mL streptomycin sulfate. Splenocytes were cultured for four days in the presence or absence of 100 μg/mL ovalbumin, either alone or with 100 μM STAT-6-IP or STAT-6-CP, which were added daily. After four days, culture supernatants were harvested to quantify cytokine production by ELISA. […] Cytokine expression was monitored by flow cytometry and analyzed using CELLQUEST™ software (Becton Dickinson). […]

IL-13 [1] = experiment: Ovalbumin-induced IL-13 production by splenocytes from ovalbumin-sensitized mice (ELISA); assay type: cell-based, BALB/c mice; conditions: ovalbumin 100 μg/mL + 100 μM peptide added daily, four days; ovalbumin alone 2585.4 ± 165.7
Experimental: as §1, §2

IFN-gamma = experiment: Ovalbumin-induced IFN-gamma production by splenocytes from ovalbumin-sensitized mice (ELISA); assay type: cell-based, BALB/c mice; conditions: ovalbumin 100 μg/mL + 100 μM peptide added daily, four days; ovalbumin alone 567.9 ± 93.1
Experimental: as §1, §2

[2] = system: CD4+ lymphocytes expressing IL-4; experiment: Intracellular cytokine staining of CD4+ T cells producing IL-4 (flow cytometry); assay type: cell-based, BALB/c mice; conditions: ovalbumin + 100 μM peptide, ovalbumin alone 90.21 ± 8.02
Experimental: The levels of mRNA encoding IL-4, IL-13 and IFN-gamma were also evaluated by semiquantitative RT-PCR analysis. Ovalbumin-induced expression of both IL-4 and IL-13 mRNA was inhibited in splenocytes cultured with the STAT-6-IP and not the STAT-6-CP. […] The number of CD4+ T cells producing IL-4 was also quantified by intracellular cytokine staining. When splenocytes from ovalbumin-sensitized mice were cultured with ovalbumin, there was a significant increase in the number of CD4+ lymphocytes expressing IL-4 (Table 4). The increase in IL-4 expression was abrogated in splenocytes cultured with ovalbumin in the presence of the STAT-6-IP, while the STAT-6-CP had no effect.
as §2, with “Splenocytes were cultured for four days in the presence or absence of 100 μg/mL ovalbumin, either alone or with 100 μM STAT-6-IP or STAT-6-CP, which were added daily.” left out

IL-13 [3] = experiment: IL-13 in the BAL fluid (ELISA); assay type: in vivo, BALB/c mice; conditions: 150 μg peptide prior to each ovalbumin challenge; ovalbumin control 84.95, normal saline 55.67
Experimental: Six-to-eight week-old male BALB/c mice were obtained from Harlan-Sprague Dawley (Indianapolis, Ind.) and were housed in a conventional animal facility. For each experimental condition, a minimum of 6-8 animals was used. Awake animals were sensitized five days per week for each of two weeks by instillation in each nostril of 5 μL 1% ovalbumin in PBS. Alternatively, animals were sensitized by two weekly systemic, i.p. injections of 0.025% ovalbumin mixed with 4 mg/mL Al(OH)3. Following two weeks rest, animals were challenged for five days by intranasal instillation of 1% ovalbumin. Animals treated with peptides received the STAT-6-IP (15, 50, or 150 μg) or STAT-6-CP (50 or 150 μg) in 10 μL PBS 30 minutes prior to each ovalbumin challenge. Twenty-four hours after the last ovalbumin challenge, mice were deeply anaesthetized with xylazine and sodium pentobarbital and paralyzed with pancuronium bromide. The tail vein was cannulated for drug administration and heart rate was monitored by EKG. […] Respiratory system resistance was measured. […] Methacholine was injected through the tail vein at dose of 10, 20, 40, 80, 160, 320 μg/kg and the maximal resistance and elastance were recorded. […] Six fields were counted, each encompassing 100 cells per slide, and means obtained.

[4] = system: ovalbumin-sensitized mice; experiment: Airway hyperresponsiveness to methacholine (respiratory system resistance, FlexiVent); assay type: in vivo, BALB/c mice
Experimental: Six-to-eight week-old male BALB/c mice were obtained from Harlan-Sprague Dawley (Indianapolis, Ind.) and were housed in a conventional animal facility. For each experimental condition, a minimum of 6-8 animals was used. Awake animals were sensitized five days per week for each of two weeks by instillation in each nostril of 5 μL 1% ovalbumin in PBS. Alternatively, animals were sensitized by two weekly systemic, i.p. injections of 0.025% ovalbumin mixed with 4 mg/mL Al(OH)3. Following two weeks rest, animals were challenged for five days by intranasal instillation of 1% ovalbumin. Animals treated with peptides received the STAT-6-IP (15, 50, or 150 μg) or STAT-6-CP (50 or 150 μg) in 10 μL PBS 30 minutes prior to each ovalbumin challenge. Twenty-four hours after the last ovalbumin challenge, mice were deeply anaesthetized with xylazine and sodium pentobarbital and paralyzed with pancuronium bromide. The tail vein was cannulated for drug administration and heart rate was monitored by EKG. The trachea was exposed, a cannula inserted and secured with silk ties and then attached to a computer-controlled small-animal ventilator (FlexiVent; SCIREQ, Montreal, Quebec). Mice were ventilated quasi-sinusoidally with a tidal volume of 8 mL/kg and respiratory rate of 150 breaths/minute. Respiratory system resistance was measured. Airway hyperresponsiveness was by low dose methacholine. Methacholine was injected through the tail vein at dose of 10, 20, 40, 80, 160, 320 μg/kg and the maximal resistance and elastance were recorded. Afterward, the trachea was isolated and a 22-gauge stainless steel catheter was inserted into the proximal trachea and secured with 4-0 silk suture. The lungs were lavaged using 0.5 mL of ice cold 0.9% NaCl. The bronchoalveolar lavage (BAL) fluid was centrifuged to remove intact cells and the supernatant stored at −20° C. for IL-13 analysis by ELISA. […] Six fields were counted, each encompassing 100 cells per slide, and means obtained.

[5] = system: ovalbumin-sensitized mice; experiment: Histology of lungs; assay type: in vivo, BALB/c mice; conditions: compared with ovalbumin-sensitized and -challenged animals
Experimental: Histology was performed according to established methods (McCusker, et al. (2002) supra). Briefly, lungs were slowly inflated with 1 mL of formalin, isolated, and placed entirely in formalin. The specimens were embedded in paraffin and […] sections prepared. Slides were stained with Giemsa and examined under standard light microscopy.

Sequence: YARAAARQARAGRGFVSTT [STAT-6-CP, STAT-6 Tyr-641 mutant, control peptide]
- IL-4 (pg/mL ± SEM), culture supernatant (IL-4): 212.9 ± 4.1 pg/mL
- IL-13 (pg/mL ± SEM), culture supernatant (IL-13 [1]): 2136.2 ± 94.7 pg/mL
- IFN-gamma (pg/mL ± SEM), culture supernatant (IFN-gamma): 513.6 ± 118.3 pg/mL
- Percentage of IL4 positive cells ± SEM [2]: 92.13 ± 5.62 Percentage
- IL-13, pg/mL (±SEM), BAL fluid (IL-13 [3]): 75.75 (±5.60) pg/mL
- Response Rmax (cm H2O × s/mL ± SEM) ([4]; dose response, 150 μg peptide, ovalbumin control 2.02, normal saline 1.41): 2.53 (±0.31) cm H2O × s/mL
- Response Rmax (cm H2O × s/mL ± SEM) ([4]; i.n. ovalbumin sensitization, 50 microgram peptide, ovalbumin control 1.92, normal saline 1.19): 1.80 ± 0.07 cm H2O × s/mL
- Response Rmax (cm H2O × s/mL ± SEM) ([4]; i.p. ovalbumin sensitization, 50 microgram peptide, ovalbumin control 1.87, normal saline 1.19): 1.85 ± 0.06 cm H2O × s/mL
- Ovalbumin-induced lung inflammation, including airway eosinophilia (histology) [5]: did not differ
